Patent US10233186B2, “Inhibitors of activin receptor-like kinase” (BLUEPRINT MEDICINES CORPORATION, priority 2016, dated 2019)

Biological target: T1, ALK2 R206H (GST-tagged mutant ALK2) (Homo sapiens, UniProt Q04771, R206H)
T1 construct: purchased Carna Bioscience or ThermoFisher 09-148 or PV6232
T1 sequence (Q04771 21-509 R206H): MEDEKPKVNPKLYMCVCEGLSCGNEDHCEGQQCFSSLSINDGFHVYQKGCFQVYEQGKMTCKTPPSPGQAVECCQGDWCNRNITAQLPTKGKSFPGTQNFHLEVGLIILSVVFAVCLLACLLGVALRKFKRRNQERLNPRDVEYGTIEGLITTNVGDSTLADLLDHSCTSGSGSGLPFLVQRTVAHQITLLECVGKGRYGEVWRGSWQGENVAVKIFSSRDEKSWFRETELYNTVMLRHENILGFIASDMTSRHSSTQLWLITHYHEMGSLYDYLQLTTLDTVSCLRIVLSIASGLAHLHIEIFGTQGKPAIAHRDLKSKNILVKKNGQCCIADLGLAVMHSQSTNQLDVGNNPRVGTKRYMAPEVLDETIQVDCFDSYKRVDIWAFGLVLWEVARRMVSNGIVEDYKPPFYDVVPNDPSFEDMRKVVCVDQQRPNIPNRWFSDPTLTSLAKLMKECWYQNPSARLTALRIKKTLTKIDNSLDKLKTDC
Experiment: ALK binding assay (LANTHASCREEN TR-FRET competitive binding, displacement of Kinase Tracer 178)
Settings: ALK2 R206H, LANTHASCREEN TR-FRET competitive binding; read-out: Binding Assay (IC50)
Experimental: Binding assays were conducted using the LANTHASCREEN® technology (ThermoFisher Scientific). LANTHASCREEN® is a competitive binding, displacement assay where the assumed steady state occupancy of the binding site is measured using a time-resolved, fluorescence energy transfer (TR-FRET) readout between a fluorescent tracer and Europium (Eu)-tagged antibody specific for the kinase or expression tag (e.g. GST) of interest. Displacement of the tracer by a compound of the disclosure reduces, and is directly proportional to, the TR-FRET between the tracer and the antibody. Tracer was used at a concentration equal to or near to its Kd for the kinase.
In all cases, the kinase (2-5 nM) was mixed with Eu-tagged antibody (10 nM) mix and tracer (50 nM) were incubated with test compound titrations prepared in 100% DMSO (1% DMSO final) for 30 minutes at room temperature. All reagents and compounds were dissolved in Kinase Buffer A (ThermoFisher) to achieve the final concentration. […] This readout was normalized to 0% and 100% inhibited control wells, plotted against inhibitor concentration, and fitted to a 4-parameter log dose response curve.
Blank values in the table indicate that the particular compound was not tested in this assay.

| IC50 [nM] | Compound |
| --- | --- |
| < 10 | CC(C)N1CCC(c2ccc(-c3cc4c(N5CCN(C(=O)C6CC6)CC5)ccnn4c3)c(F)c2)CC1 [Compound 584] |
| < 10 | O=C(C1CC1)N1CCN(c2ccnn3cc(-c4ccc(C5CC6(CNC6)C5)cc4)cc23)CC1 [Compound 767] |
| 10 to 50 | CC(C)N1CCC(c2ccc(-c3cc4c(N5CCN(C(=O)NCC(F)F)CC5)ccnn4c3)cc2)CC1 [Compound 822] |
| > 50 | CCN1CCN(c2ccc(-c3cc4c(N5CCN(C(=O)C6(c7cccnc7)CC6)CC5)ccnn4c3)cc2)CC1 [Compound 433] |
| 10 to 50 | C[C@@H]1CNC[C@@H](c2ccc(-c3cc4c(N5CCN(C(=O)C6CC6)CC5)ccnn4c3)cc2)O1 [Compound 168] |
| < 10 | CCOC(=O)N1CCN(c2ccnn3cc(-c4ccc([C@@]5(C)CCCN5C(C)C)cc4)cc23)CC1 [Compound 536] |
| < 10 | N[C@H]1CCc2cc(-c3cc4c(N5CCN(C(=O)C6CC6)CC5)ccnn4c3)ccc21 [Compound 449] |
| 10 to 50 | CCN(CC)C(=O)N1CCN(c2ccnn3cc(-c4ccc(C5CCN(C(C)C)CC5)cc4)cc23)CC1 [Compound 392] |
| 10 to 50 | CC(C)N1CCC(c2ccc(-c3cc4c(N5CCN(C(=O)N6CC7(COC7)C6)CC5)ccnn4c3)cc2)CC1 [Compound 841] |
| > 50 | CCN1CCN(c2ccc(-c3cc4c(N5CCN(C(=O)C6CC6)C(C(F)F)C5)ccnn4c3)cc2)CC1 (centres unmarked) [Compound 403, cyclopropyl(2-(difluoromethyl)-4-(6-(4-(4-ethylpiperazin-1-yl)phenyl)pyrrolo[1,2-b]pyridazin-4-yl)piperazin-1-yl)methanone] |
| < 10 | CCOC(=O)N1CCN(c2ccnn3cc(-c4ccc([C@]5(C)CCCN5C(C)C)cc4)cc23)CC1 [Compound 535] |
| < 10 | CC(C)N1CCC(c2ccc(-c3cc4c(N5CCN(C(=O)C6COC6)CC5)ccnn4c3)cc2)CC1 [Compound 574] |
| < 10 | CCOC(=O)N1CCN(c2ccnn3cc(-c4ccc(C5=CCN(C(C)C)CC5)cc4F)cc23)CC1 [Compound 602] |
| < 10 | CC(C)NC(=O)N1CCN(c2ccnn3cc(-c4ccc(C5CCN(C(C)C)CC5)cc4Cl)cc23)CC1 [Compound 700] |
| 10 to 50 | CCN1CCN(c2ccc(-c3cc4c(N5CCN(C(=O)C6(c7ccsc7)CC6)CC5)ccnn4c3)cc2)CC1 [Compound 439] |
| < 10 | CC(C)N1CCN[C@@](C)(c2ccc(-c3cc4c(N5CCN(C(=O)C6CC6)CC5)ccnn4c3)cc2)C1 [Compound 569] |
| 10 to 50 | O=C(C1CC1)N1CCN(c2ccnn3cc(-c4ccc(N5CCNCC5C(F)(F)F)cc4)cc23)CC1 (centres unmarked) [Compound 374, cyclopropyl(4-(6-(4-(2-(trifluoromethyl)piperazin-1-yl)phenyl)pyrrolo[1,2-b]pyridazin-4-yl)piperazin-1-yl)methanone] |
| 10 to 50 | O=C(C1CC1)N1CCN(c2ccnn3cc(-c4nc5c(s4)CCNC5)cc23)CC1 [Compound 108] |
| < 10 | CC(C)N1CCC(c2ncc(-c3cc4c(N5CCN(C(=O)C6CC6)CC5)ccnn4c3)cn2)CC1 [Compound 525] |
| 10 to 50 | O=C(C1CC1)N1CCN(c2ccnn3cc(-c4ccc(OCCN5CCNCC5)cc4)cc23)CC1 [Compound 273, cyclopropyl(4-(6-(4-(2-(piperazin-1-yl)ethoxy)phenyl)pyrrolo[1,2-b]pyridazin-4-yl)piperazin-1-yl)methanone] |
| < 10 | CCS(=O)(=O)c1ccc(-c2cc3c(N4CCN(C(=O)C5CC5)CC4)ccnn3c2)cc1 [Compound 765] |
| < 10 | O=C(C1CC1)N1CCN(c2ccnn3cc(-c4ccc(OCC5CCNC5)cc4)cc23)CC1 (centres unmarked) [Compound 166] |
| 10 to 50 | CCN1CCN(c2cc(F)c(-c3cc4c(N5CCN(C(=O)C6CC6)CC5)ccnn4c3)c(F)c2)CC1 [Compound 362] |

| IC50 [nM] | Compound |
| --- | --- |
| > 50 | CC(c1ccc(-c2cc3c(N4CCN(C(=O)C5CC5)CC4)ccnn3c2)cc1)N1CCCC1 (centres unmarked) [Compound 471] |
| > 50 | CCN1CCC(c2ccc(-c3cc4c(N5CCN(C(=O)C6(C(C)=O)CC6)CC5)ccnn4c3)cc2)C1 (centres unmarked) [Compound 311] |
| < 10 | CC(C)N[C@H]1CCc2cc(-c3cc4c(N5CCN(C(=O)C6CC6)CC5)ccnn4c3)ccc21 [Compound 472] |
| 10 to 50 | CCN1CCN(c2ccc(-c3cc4c(N5CCN(C(=O)C6(c7cccc(F)c7)CC6)CC5)ccnn4c3)cc2)CC1 [Compound 443] |
| < 10 | N[C@H]1CCN(c2ccc(-c3cc4c(N5CCN(C(=O)C6CC6)CC5)ccnn4c3)cc2)C1 [Compound 461] |
| < 10 | COCNC(=O)N1CCN(c2ccnn3cc(-c4ccc(C5CCN(C(C)C)CC5)cc4)cc23)CC1 [Compound 590] |
| < 10 | CO[C@]1(c2ccc(-c3cc4c(N5CCN(C(=O)NC(C)C)CC5)ccnn4c3)cc2F)CCCNC1 [Compound 806] |
| < 10 | NC(CO)Cc1ccc(-c2cc3c(N4CCN(C(=O)C5CC5)CC4)ccnn3c2)cc1 (centres unmarked) [Compound 757] |
| < 10 | CC(C)N1CCCC(O)(c2ccc(-c3cc4c(N5CCN(C(=O)C6CC(C#N)C6)CC5)ccnn4c3)cc2)C1 (centres unmarked) [Compound 707] |
| < 10 | N#C[C@H]1CC[C@H](C(=O)N2CCN(c3ccnn4cc(-c5ccc(C6CNCC6F)cc5)cc34)CC2)CC1 (some centres unmarked) [Compound 378] |
| < 10 | CC(C)NC(=O)N1CCN(c2ccnn3cc(-c4ccc([C@]5(O)CCN(C(C)C)C5)cn4)cc23)CC1 [Compound 607] |
| > 50 | CCN1CCN(c2ccc(-c3cc4c(N5CCN6C(=O)CCC6C5)ccnn4c3)cc2)CC1 (centres unmarked) [Compound 157, 2-(6-(4-(4-ethylpiperazin-1-yl)phenyl)pyrrolo[1,2-b]pyridazin-4-yl)hexahydropyrrolo[1,2-a]pyrazin-6(7H)-one] |
| < 10 | CC(C)N1CCN(c2cnc(-c3cc4c(N5CCN(C(=O)C6CC6)CC5)ccnn4c3)cn2)CC1 [Compound 529] |
| < 10 | CCO[C@]1(c2ccc(-c3cc4c(N5CCN(C(=O)NC(C)C)CC5)ccnn4c3)nc2)CCCN(C(C)C)C1 [Compound 717] |
| < 10 | CCN1CCC[C@@H](c2ccc(-c3cc4c(N5CCN(C(=O)C6CC6)CC5)ccnn4c3)cc2)C1 [Compound 206] |
| < 10 | CCN1CCC(c2ccc(-c3cc4c(N5CCN(C(=O)C6CC6C6CCC6)CC5)ccnn4c3)cc2)C1 (centres unmarked) [Compound 372] |
| < 10 | COC1(c2ccc(-c3cc4c(N5CCN(C(=O)C6CC(C#N)C6)CC5)ccnn4c3)cc2)CCCN(C(C)C)C1 (centres unmarked) [Compound 730] |
| < 10 | O=C(C1CC1)N1CCN(c2ccnn3cc(-c4c(F)cc(N5CCNCC5)cc4F)cc23)CC1 [Compound 239] |
| 10 to 50 | CCN1CCC1COc1ccc(-c2cc3c(N4CCN(C(=O)C5CC5)CC4)ccnn3c2)cc1 (centres unmarked) [Compound 218] |
| < 10 | CC(C)N1CCC(c2ccc(-c3cc4c(N5CCN(C(=O)OCC(C)(C)C)CC5)ccnn4c3)cc2)CC1 [Compound 670] |
| 10 to 50 | O=C(C1CC1)N1CCN(c2ccnn3cc(-c4ccc([C@@H]5CCNC[C@@H]5F)cc4)cc23)CC1 [Compound 176] |
| < 10 | CCN1CCC(c2ccc(-c3cc4c(N5CCN(C(=O)C6CC(O)(c7ccccc7)C6)CC5)ccnn4c3)cc2)CC1 (centres unmarked) [Compound 446] |

| Compound | IC50 [nM] |
| --- | --- |
| O=C(C1CC1)N1CCN(c2ccnn3cc(-c4ccc(C5=CCNCC5)cc4)cc23)CC1 [Compound 458] | < 10 |
| CCOC1(c2ccc(-c3cc4c(N5CCN(C(=O)O[C@@H](C)CF)CC5)ccnn4c3)nc2)CCN(C(C)C)CC1 [Compound 866] | < 10 |
